Experiment [1] concerns NF-kB activity in TMD-8-NF-kB-luc cells. The experiment can be described thus: NF-kB reporter assay. The experiment is classed as cell-based, human. The following applies: 6 h, One-Glo, read-out: IC50 with respect to the inhibition of NF-kB activity in TMD-8-NF-kB-luc cells. How it is done: NF-kB Reporter Assay The effect of the inventive compounds of the general formula (I) on the NF-kB signalling pathway was examined in vitro in human DLBCL cells (see Table 4). 10 000 TMD-8-NF-kB-luc reporter cells at 30 μl/cavity in growth medium (RPMI (Biochrom: FG 1215), 20% FCS (Biochrom: S 0615)) were transferred into a 384-cavity plate (Perkin Elmer, white) and incubated at 37° C. overnight. After 24 h, the cells were treated with the test substances and incubated at 37° C. for 6 h. The test substances were added to the cells in a 7-stage, 3-fold dilution series using an HP D300 digital dispenser. As control, the cells were treated with the vehicle (DMSO). After 6 h, the cells were treated with 30 μl/well One-Glo solution (Promega, E6110) and incubated at room temperature for 10 min, and the luminescence was measured using a VICTOR V (Perkin Elmer) in order to determine the NF-kB reporter activity at the end of the treatment. The percentage effect of the NF-kB reporter activity and the IC50 derived therefrom were determined for each test substance with the aid of the values for an NF-kB pathway inhibitor (I-kappa B kinase inhibitor) (−)-7-[2-(cyclopropylmethoxy)-6-hydroxyphenyl]-5-[(3S)-3-piperidinyl]-1,4-dihydro-2H-pyrido[2,3-d][1,3]oxazin-2-one (CAS Number 600734-02-9; see WO 2003076447) (=maximum inhibition) and the DMSO control (=minimum inhibition). The IC50 values were calculated using a 4-parameter fit.

Another experiment concerns TMD-8 cells. The experiment can be described thus: Cell proliferation measurement in TMD-8 cells. Type of experiment: cell-based, human. The settings on record: Cell Titer Glo, read-out: IC50 with respect to proliferation inhibition in TMD-8 cells. The procedure:
Cell Proliferation Measurement The antiproliferative activity of the inventive compounds of the general formula (I) was examined in vitro in human ABC-DLBCL cells (see Table 3). For this purpose 4000 TMD-8 cells (both from ATCC) at 30 μl/cavity in growth medium (RPMI (Biochrom: FG 1215), 20% FCS (Biochrom: S 0615)) were transferred into a 384-cavity plate (Perkin Elmer, white) and incubated at 37° C. overnight. After 24 h, cells on one plate (0 h plate) were treated with 30 μl/cavity of CTG solution (Promega Cell Titer Glo (catalogue # […] and […])) and incubated at room temperature for 10 min, and luminescence was measured by means of a VICTOR V (Perkin Elmer), in order to determine cell viability on commencement of treatment. The cells on the test plate were treated with the inventive compounds of the general formula (I) and incubated at 37° C. for 72 h. The compounds were added to the cells in a 7-stage, 3-fold dilution series using an HP D300 digital dispenser. As control, the cells were treated with vehicle (DMSO). After 72 h, the cells were treated with 30 μl/cavity of CTG solution (Promega Cell Titer Glo (catalogue # […] and […])) and incubated at room temperature for 10 min, and luminescence was measured by means of a VICTOR V (Perkin Elmer), in order to determine cell viability at the end of treatment. The percentage effect on cell growth and the IC50 derived therefrom were determined for each test substance using the values from the 0 h plate (=maximum inhibition) and the DMSO control (=minimum inhibition). The IC50 values were calculated using a 4-parameter fit.
(In general: Cellular ATP, detected with luciferase, serves as a proxy for viable cell number.)

Read-outs that look alike come from different tables or passages of the source.

The text below walks through data of patent publication US10435396B2, “2-substituted indazoles, methods for producing same, pharmaceutical preparations that contain same, and use of same to produce drugs” (Bayer Pharma Aktiengesellschaft, priority 2016, dated 2019).

For the compound `COc1cc2nn(C3CCN(C(=O)CO)CC3)cc2cc1NC(=O)c1cccc(C(F)(F)F)n1` [Example 5, N-[2-(1-Glycoloylpiperidin-4-yl)-6-methoxy-2H-indazol-5-yl]-6-(trifluoromethyl)pyridine-2-carboxamide], the IC50 was determined as 5.1 µM in experiment [1] (Homo sapiens) and 15.5 µM in the experiment on TMD-8 cells (Homo sapiens, TMD8, 72 h).

As to `COc1cc2nn(C3CCN(C)CC3)cc2cc1NC(=O)c1cccc(C(F)(F)F)n1` [Example 4, N-[6-Methoxy-2-(1-methylpiperidin-4-yl)-2H-indazol-5-yl]-6-(trifluoromethyl)pyridine-2-carboxamide], the IC50 in experiment [1] (Homo sapiens) came to 7.41 µM; in the experiment on TMD-8 cells (Homo sapiens, TMD8, 72 h) it was 4.08 µM.

Consider `COc1cc2nn(C3CCNCC3)cc2cc1NC(=O)c1cccc(C(F)(F)F)n1` [Example 2, N-[6-Methoxy-2-(piperidin-4-yl)-2H-indazol-5-yl]-6-(trifluoromethyl)pyridine-2-carboxamide], for which the IC50 worked out at 9.45 µM in experiment [1] (Homo sapiens) and 8.61 µM in the experiment with TMD-8 cells (Homo sapiens, TMD8, 72 h).

For `COc1cc2nn(C3CCN(CCO)CC3)cc2cc1NC(=O)c1cccc(C(F)(F)F)n1` [Example 13, N-{2-[1-(2-Hydroxyethyl)piperidin-4-yl]-6-methoxy-2H-indazol-5-yl}-6-(trifluoromethyl)pyridine-2-carboxamide], the IC50 in experiment [1] (Homo sapiens) came out at 5.1 µM; in the experiment with TMD-8 cells (Homo sapiens, TMD8, 72 h), 5.85 µM.

With `COc1cc2nn(C3CC[S+]([O-])CC3)cc2cc1NC(=O)c1cccc(C(F)(F)F)n1` (racemic) [Example 12, rac-N-[6-Methoxy-2-(1-oxidotetrahydro-2H-thiopyran-4-yl)-2H-indazol-5-yl]-6-(trifluoromethyl)pyridine-2-carboxamide], the IC50 in experiment [1] (Homo sapiens) turned out to be 6.81 µM; in the experiment with TMD-8 cells (Homo sapiens, TMD8, 72 h), 11.5 µM.

As to `COc1cc2nn(C3CCOCC3)cc2cc1NC(=O)c1cccc(C(C)(C)O)n1` [Example 28, 6-(2-Hydroxypropan-2-yl)-N-[6-methoxy-2-(tetrahydro-2H-pyran-4-yl)-2H-indazol-5-yl]pyridine-2-carboxamide], the IC50 was 2.68 µM in experiment [1] (Homo sapiens) and 3.51 µM with TMD-8 cells (Homo sapiens, TMD8, 72 h).

For `COc1cc2nn(C3CCOCC3)cc2cc1NC(=O)c1cccc(C(F)F)n1` [Example 23, 6-(Difluoromethyl)-N-[6-methoxy-2-(tetrahydro-2H-pyran-4-yl)-2H-indazol-5-yl]pyridine-2-carboxamide], the IC50 was determined as 3.84 µM in experiment [1] (Homo sapiens) and 8.52 µM with TMD-8 cells (Homo sapiens, TMD8, 72 h).

As to `COc1cc2nn(C3CCN(C4COC4)CC3)cc2cc1NC(=O)c1cccc(C(F)(F)F)n1` [Example 10, N-{6-Methoxy-2-[1-(oxetan-3-yl)piperidin-4-yl]-2H-indazol-5-yl}-6-(trifluoromethyl)pyridine-2-carboxamide], the IC50 came out at 28.9 µM in experiment [1] (Homo sapiens) and 23.3 µM in the experiment on TMD-8 cells (Homo sapiens, TMD8, 72 h).

On to `COc1cc2nn(C3CCS(=N)(=O)CC3)cc2cc1NC(=O)c1cccc(C(F)(F)F)n1` (single isomer, unassigned) [Example 21, N-[2-(1-Imino-1-oxidohexahydro-1λ^4-thiopyran-4-yl)-6-methoxy-2H-indazol-5-yl]-6-(trifluoromethyl)pyridine-2-carboxamide], for which the IC50 in experiment [1] turned out to be 5.19 µM; in the experiment on TMD-8 cells (Homo sapiens, TMD8, 72 h), 14.8 µM.

Take `CC(C)(O)c1cc2nn(C3CCNCC3)cc2cc1NC(=O)c1cccc(C(F)(F)F)n1` [Example 46, N-[6-(2-Hydroxypropan-2-yl)-2-(piperidin-4-yl)-2H-indazol-5-yl]-6-(trifluoromethyl)pyridine-2-carboxamide]: the IC50 came to 13.4 µM in experiment [1] (Homo sapiens) and 14.1 µM in the experiment with TMD-8 cells (Homo sapiens, TMD8, 72 h).

In the case of `COc1cc2nn(C3CCOCC3)cc2cc1NC(=O)c1cccc(C(F)(F)F)n1` [Example 1, N-[6-Methoxy-2-(tetrahydro-2H-pyran-4-yl)-2H-indazol-5-yl]-6-(trifluoromethyl)pyridine-2-carboxamide], the IC50 in experiment [1] (Homo sapiens) was 15.6 µM; in the experiment on TMD-8 cells (Homo sapiens, TMD8, 72 h) it was 28.2 µM.

In the case of `COc1cc2nn(C3CCS(=N)(=O)CC3)cc2cc1NC(=O)c1cccc(C(F)(F)F)n1` (single isomer, unassigned) [Example 20, N-[2-(1-Imino-1-oxidohexahydro-1λ^4-thiopyran-4-yl)-6-methoxy-2H-indazol-5-yl]-6-(trifluoromethyl)pyridine-2-carboxamide], the IC50 came out at 21.8 µM in experiment [1] and 16.1 µM with TMD-8 cells (72 h).

As to `COc1cc2nn(C3CCOCC3)cc2cc1NC(=O)c1cccc(N2CCOCC2)n1` [Example 24, N-[6-Methoxy-2-(tetrahydro-2H-pyran-4-yl)-2H-indazol-5-yl]-6-(morpholin-4-yl)pyridine-2-carboxamide], the IC50 in experiment [1] (Homo sapiens) was found to be 22.6 µM; in the experiment on TMD-8 cells (Homo sapiens, TMD8, 72 h), 28.1 µM.

`CC(C)(O)c1cc2nn(C3CCS(=O)(=O)CC3)cc2cc1NC(=O)c1cccc(C(F)(F)F)n1` [Example 44, N-[2-(1,1-Dioxidotetrahydro-2H-thiopyran-4-yl)-6-(2-hydroxypropan-2-yl)-2H-indazol-5-yl]-6-(trifluoromethyl)pyridine-2-carboxamide]: the IC50 came to 14.6 µM in experiment [1] (Homo sapiens) and 18.8 µM with TMD-8 cells (Homo sapiens, TMD8, 72 h).

With `COc1cc2nn([C@@H]3C[C@@H]4C[C@H]3CN4C)cc2cc1NC(=O)c1cccc(C(F)(F)F)n1` (relative stereo) [Example 18, rel-N-{6-Methoxy-2-[(1S,4S,5R)-2-methyl-2-azabicyclo[2.2.1]hept-5-yl]-2H-indazol-5-yl}-6-(trifluoromethyl)pyridine-2-carboxamide], the IC50 was found to be 5.52 µM in experiment [1] (Homo sapiens) and 3.45 µM in the experiment on TMD-8 cells (Homo sapiens, TMD8, 72 h).
